Source: patent publication US10555932B2, “Method of restoring analgesic efficacy of alpha2-adrenoceptor agonists in neuropathic pain treatment” (KOREA INSTITUTE OF SCIENCE AND TECHNOLOGY, priority 2016, dated 2020)
Structures can show the parent of a compound that is named as a salt.

Tests used:
[1] = system: mice having neuropathic pain induced by a spared nerve injury (SNI); details: for analgesic efficacy at the chronic stage of the neuropathic pain / analgesic efficacy at the earlier stage of the neuropathic pain: agonist alone; for analgesic efficacy upon co-administration of CCG 50014 (RGS4 inhibitor): at 14, 28, or even 56 days after SNI, CCG50014 intrathecally 5 minutes before agonist (FIGS. 3 and 4); for analgesic effect of 1 nmol at 14 days after SNI / analgesic effect at 28 days after SNI / analgesic effect at 56 days after SNI / analgesic effect at 14 days after SNI / higher dose needed at 56 days after SNI for analgesic effect similar to that at 14 days after SNI / neuropathic pain induced by SNI (withdrawal threshold): mouse; for analgesic effect of 1 nmol at 14 days after SNI / analgesic effect at 28 days after SNI / analgesic effect at 56 days after SNI / analgesic effect at 14 days after SNI / higher dose needed at 56 days after SNI for analgesic effect similar to that at 14 days after SNI: intrathecal; for analgesic effect of 1 nmol at 14 days after SNI: alone (FIGS. 5 and 6); for analgesic effect at 28 days after SNI / analgesic effect at 56 days after SNI / analgesic effect at 14 days after SNI / higher dose needed at 56 days after SNI for analgesic effect similar to that at 14 days after SNI: alone; for analgesic effect at 14 days after SNI: as doses increased; for higher dose needed at 56 days after SNI for analgesic effect similar to that at 14 days after SNI: relative to 1 nmol at 14 days; for neuropathic pain induced by SNI (withdrawal threshold): single intrathecal injection, agonist alone (FIGS. 1 and 2)
Source text: To prepare neuralgia-induced mouse models, mice having a genetic background of 129S4/SvJae×C57BL/6J were used. According to a modification of the method described in the related art, a spared nerve injury (SNI) of sciatic nerve was induced in the mice.
Briefly, the mice were anesthetized with 3% isoflurane in a mixture of N2O/O2 gas. At the right hindlimb, incision was made at a mid-thigh level, and peripheral branches (sural, common peroneal, and tibial nerves) of the sciatic nerve were exposed. Both tibial and common peroneal nerves were tightly ligated with 8.0 silk thread together, and a 1-2 mm section of the two nerves was removed. The sural nerve was carefully preserved by avoiding any nerve stretch or nerve contact with surgical tools. Muscle and skin were closed in two distinct layers with chromic catgut 6.0 and silk 6.0 suture, respectively. During recovery, animals were housed in clear plastic cages with a thick layer of sawdust bedding.
Clonidine (2-[(2,6-dichlorophenyl)amino-2-imidazoleine hydrochloride, alpha2AR agonist) was purchased from Sigma (St. Louis, Mo., USA). CCG50014 was diluted in 12% dimethyl sulfoxide (DMSO) in saline.
Each drug was administered by intrathecal injection based on the technique developed by Hylden and Wilcox. […] drugs were dissolved in 5 μl of vehicle. Briefly, for mouse intrathecal injections, a 30-gauge needle (length: 0.5 inch) connected to a 50 μl Hamilton syringe was inserted into the subarachnoid space between the lumbar vertebrae L5 and L6. A flick of the mouse tail provided a reliable indicator that the needle had penetrated the dura meter. The syringe was held in position for a few seconds after the injection of 5 μl/mouse.
To evaluate a degree of pain alleviation in each of the neuralgic mice, a degree of pain responses to mechanical stimuli was measured by measuring mechanical threshold based on the method described in the related art. In detail, mechanical withdrawal thresholds were determined for all mice at day 0 prior to neuropathic surgery in order to obtain normal baseline values of withdrawal threshold to mechanical stimuli. For 56 days post-SNI surgery, all experimental animals were behaviorally tested to confirm the development of mechanical allodynia. […] The test was performed using an ascending series of von Frey filaments (North Coast Medical, Morgan Hill, Calif.). Mice were placed in an acrylic cylinder (6.5 cm in diameter and 17 cm in height) on an elevated metal mesh grid and allowed to acclimate for 30 minutes before testing. Each monofilament (0.008 g, 0.02 g, 0.07 g, 0.16 g, 0.4 g, and 0.6 g) was applied 6 times in ascending order to the midplantar region of each hind paw of mouse. The monofilament that produced a paw withdrawal, flinch, or lick in 3 of 6 applications was defined as the 50% paw withdrawal threshold. The behavioral investigator was blinded to the treatment of animals during the experiments.
(§1) Results of each of the experiments above are expressed as means±SEM unless otherwise stated. Data analysis and statistical comparisons were performed using GraphPad Prism version 5.0 (GraphPad Software, San Diego, Calif.). Comparison between two groups was made using the Student's t-test. For multiple comparisons, ANOVA followed by post hoc Tukey test was performed. Differences with P<0.05 were considered significant.

[2] = system: systolic blood pressure (SBP); details: mouse
Description: To evaluate the induction of low blood pressure, systolic blood pressure (SBP) was measured using a non-invasive computerized tail-cuff system as previously described in the art (PowerLab system, ADI Instrument Pry Ltd., Chain Hills, NSW, Australia). Briefly, animals were acclimated for 30 minutes in a quiet test room prior to obtaining cardiovascular measurements. At the end of the 1 hour period, the SBP was measured. This experiment was repeated 3 times and the mean value for each animal was recorded. […] All cardiovascular measurements were obtained between 1 pm to 3 pm in order to avoid changes due to normal circadian rhythms.
as §1, with “Test results” for “Results of each of the experiments above”

[3] = cited from earlier work
motion performance = details: mouse
Description: To evaluate degradation of motion performance capability as one of side effects caused by the low blood pressure, rotarod test was performed on each of the mice administered with clonidine or the RGS4 inhibitor. […] All mice were tested 24 hours before the actual rotarod test, and mice that were able to remain on the rod for at least 120 seconds were included in the experiment. 30 minutes after clonidine injection, each animal was subsequently tested on the rotarod over 2-minutes period and their performance time on the bar (in seconds) was measured. The test was repeated 3 times and the mean value for each animal was recorded.
as §1, with “Test results” for “Results of each of the experiments above”

| Compound | analgesic efficacy at the chronic stage of the neuropathic pain ([1]; mouse SNI) | analgesic efficacy at the earlier stage of the neuropathic pain ([1]; mouse SNI) | analgesic efficacy upon co-administration of CCG 50014 (RGS4 inhibitor) ([1]; mouse SNI) | analgesic effect of 1 nmol at 14 days after SNI [1] | analgesic effect at 28 days after SNI [1] | analgesic effect at 56 days after SNI [1] | analgesic effect at 14 days after SNI [1] | higher dose needed at 56 days after SNI for analgesic effect similar to that at 14 days after SNI [1] | neuropathic pain induced by SNI (withdrawal threshold) [1] | low blood pressure side effect ([2]; 1 nmol in combination with the RGS4 inhibitor (FIG. 7)) | blood pressure (SBP) change ([2]; clonidine 10 nmol alone (effective dose), 30 minutes after treatment (FIG. 7)) | analgesic efficacy upon co-administration of dynasore ([1]; mouse SNI, 56th day after SNI, dynasore intrathecally 5 minutes before clonidine (FIG. 9)) | side effect ([3]; healthy adult male, concentration gradient from about 150 μg to about 450 μg) | side effects ([3]; human, 1 μg/kg intravenously with lidocaine) | harmful side effect ([3]; human, 5 μg/kg orally) | decreased motor performance side effect (motion performance; 1 nmol in combination with the RGS4 inhibitor (FIG. 8)) | motor performance (rotarod) (motion performance; clonidine 10 nmol alone, 30 minutes after injection (FIG. 8)) |
| --- | --- | --- | --- | --- | --- | --- | --- | --- | --- | --- | --- | --- | --- | --- | --- | --- | --- |
| Cc1cccc([C@H](C)c2c[nH]cn2)c1C.Cl [dexmedetomidine, 4-[(1S)-1-(2,3-dimethylphenyl)ethyl]-1H-imidazole hydrochloride] | lost the analgesic efficacy | exhibited the analgesic efficacy | maintained | significant analgesic effect | decreased | completely disappeared | potent analgesic effect | 3 fold | alleviated | – | – | – | – | – | – | – | – |
| Clc1cccc(Cl)c1N=C1NCCN1 [clonidine, 2-[(2,6-dichlorophenyl)amino-2-imidazoleine hydrochloride] | lost the analgesic efficacy | exhibited the analgesic efficacy | maintained | significant analgesic effect | decreased | completely disappeared | potent analgesic effect | 10 fold | alleviated | no side effects | significant symptoms of low blood pressure | restored | no side effect | no statistically significant side effects | no harmful side effect | no side effects | rapidly decreased motor performance |
